In PMC10004634 (PLOS ONE, 2023):
Where two headings read alike, the source gives them in different places.

Legend:
Assay in all cases: biochemical
Design in all cases: KINOMEscan scanMAX competition binding, DNA-tagged kinases, qPCR read-out, percent control at 300 nM
ERK3 = target: T1, ERK3 (Homo sapiens, UniProt Q16659)
T1 construct: gene MAPK6

MELK = MELK (Homo sapiens, UniProt Q14680)
PAK6 = PAK6 (Homo sapiens, UniProt Q9NQU5)
PRKCH = PRKCH (Homo sapiens, UniProt P24723)
PRKCQ = PRKCQ (Homo sapiens, UniProt Q04759)
PRKX = target: T2, PRKX (Homo sapiens, UniProt P51817)
T2 sequence (P51817 1-358): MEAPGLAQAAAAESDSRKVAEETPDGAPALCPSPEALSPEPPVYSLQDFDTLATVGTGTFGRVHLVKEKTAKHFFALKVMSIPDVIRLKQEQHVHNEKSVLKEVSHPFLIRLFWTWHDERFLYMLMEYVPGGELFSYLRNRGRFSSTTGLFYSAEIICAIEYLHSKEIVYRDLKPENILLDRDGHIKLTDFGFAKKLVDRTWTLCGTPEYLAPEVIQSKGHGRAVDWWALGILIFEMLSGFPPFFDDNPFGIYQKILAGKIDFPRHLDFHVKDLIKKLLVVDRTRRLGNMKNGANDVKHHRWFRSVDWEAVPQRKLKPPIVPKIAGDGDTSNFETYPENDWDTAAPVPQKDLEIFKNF

SBK1 = SBK1 (Homo sapiens, UniProt Q52WX2)
TNK2 = TNK2 (Homo sapiens, UniProt Q07912)
ABL2 = ABL2 (Homo sapiens, UniProt P42684)
ACVR2A = ACVR2A (Homo sapiens, UniProt P27037)
BRAF = BRAF (Homo sapiens, UniProt P15056)
PAK7 = target: T3, PAK7 (Homo sapiens, UniProt Q9P286)
T3 construct: gene PAK5

[1] = target: T4, RSK1(Kin.Dom.1-N-terminal) (Homo sapiens, UniProt Q15418)
T4 construct: gene RPS6KA1; Kin.Dom.1-N-terminal

TTK = target: T5, TTK (Homo sapiens, UniProt P33981)
T5 sequence (P33981 1-857): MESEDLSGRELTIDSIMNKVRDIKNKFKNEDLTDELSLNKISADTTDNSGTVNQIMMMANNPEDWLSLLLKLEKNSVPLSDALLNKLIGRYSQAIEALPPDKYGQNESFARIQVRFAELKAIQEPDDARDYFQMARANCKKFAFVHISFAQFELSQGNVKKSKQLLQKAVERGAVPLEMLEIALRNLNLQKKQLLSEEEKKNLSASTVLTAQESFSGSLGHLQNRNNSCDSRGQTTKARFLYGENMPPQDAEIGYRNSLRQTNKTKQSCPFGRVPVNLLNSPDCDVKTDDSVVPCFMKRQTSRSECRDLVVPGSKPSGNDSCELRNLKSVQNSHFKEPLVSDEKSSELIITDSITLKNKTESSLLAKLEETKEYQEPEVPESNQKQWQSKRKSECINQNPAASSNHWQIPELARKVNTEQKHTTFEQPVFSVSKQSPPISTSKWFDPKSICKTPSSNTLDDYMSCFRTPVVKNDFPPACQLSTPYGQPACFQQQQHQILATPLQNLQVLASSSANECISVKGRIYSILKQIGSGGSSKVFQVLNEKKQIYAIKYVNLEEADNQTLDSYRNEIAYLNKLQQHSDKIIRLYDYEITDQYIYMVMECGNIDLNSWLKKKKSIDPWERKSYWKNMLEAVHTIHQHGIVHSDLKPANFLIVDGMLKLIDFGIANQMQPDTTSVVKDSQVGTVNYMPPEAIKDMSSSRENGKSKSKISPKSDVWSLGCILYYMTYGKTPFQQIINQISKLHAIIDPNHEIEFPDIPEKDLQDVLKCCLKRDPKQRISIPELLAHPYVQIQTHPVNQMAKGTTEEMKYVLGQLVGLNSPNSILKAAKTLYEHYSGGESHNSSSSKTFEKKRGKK

ZAK = target: T6, ZAK (Homo sapiens, UniProt Q9NYL2)
T6 construct: gene MAP3K20

[2] = read-out: Percent control / Tirabrutinib
[3] = read-out: Percent control / Ibrutinib
[4] = read-out: Percent control / Zanubrutinib
[5] = read-out: Percent control / Acalabrutinib

TNK2, sequence (Q07912 whole entry): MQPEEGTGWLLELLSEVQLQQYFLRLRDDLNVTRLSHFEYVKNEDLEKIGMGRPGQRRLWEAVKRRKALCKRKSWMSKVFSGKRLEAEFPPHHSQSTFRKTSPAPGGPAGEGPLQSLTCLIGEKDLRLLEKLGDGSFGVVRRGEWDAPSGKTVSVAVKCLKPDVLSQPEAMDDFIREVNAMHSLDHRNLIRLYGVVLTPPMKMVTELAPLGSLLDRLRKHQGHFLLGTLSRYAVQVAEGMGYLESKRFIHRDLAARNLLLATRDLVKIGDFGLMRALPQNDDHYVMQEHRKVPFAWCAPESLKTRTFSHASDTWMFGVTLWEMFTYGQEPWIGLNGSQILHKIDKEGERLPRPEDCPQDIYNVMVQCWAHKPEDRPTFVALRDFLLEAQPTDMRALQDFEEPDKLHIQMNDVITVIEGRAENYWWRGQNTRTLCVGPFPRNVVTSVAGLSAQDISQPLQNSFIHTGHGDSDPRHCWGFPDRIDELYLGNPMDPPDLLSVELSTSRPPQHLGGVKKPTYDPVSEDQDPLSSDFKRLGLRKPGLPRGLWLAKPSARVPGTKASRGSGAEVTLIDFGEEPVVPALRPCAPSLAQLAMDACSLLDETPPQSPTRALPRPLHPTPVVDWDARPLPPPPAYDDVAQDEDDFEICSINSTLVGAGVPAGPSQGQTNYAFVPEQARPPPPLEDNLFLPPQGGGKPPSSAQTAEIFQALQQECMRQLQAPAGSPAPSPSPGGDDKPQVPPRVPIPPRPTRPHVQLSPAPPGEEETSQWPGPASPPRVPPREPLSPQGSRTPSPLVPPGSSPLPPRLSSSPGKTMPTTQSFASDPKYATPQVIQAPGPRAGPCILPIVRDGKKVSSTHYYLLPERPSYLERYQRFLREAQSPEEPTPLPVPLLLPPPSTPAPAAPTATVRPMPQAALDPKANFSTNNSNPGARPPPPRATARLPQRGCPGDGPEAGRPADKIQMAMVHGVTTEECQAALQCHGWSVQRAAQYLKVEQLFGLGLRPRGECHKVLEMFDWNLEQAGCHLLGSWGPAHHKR
PRKCH, sequence (P24723 whole entry): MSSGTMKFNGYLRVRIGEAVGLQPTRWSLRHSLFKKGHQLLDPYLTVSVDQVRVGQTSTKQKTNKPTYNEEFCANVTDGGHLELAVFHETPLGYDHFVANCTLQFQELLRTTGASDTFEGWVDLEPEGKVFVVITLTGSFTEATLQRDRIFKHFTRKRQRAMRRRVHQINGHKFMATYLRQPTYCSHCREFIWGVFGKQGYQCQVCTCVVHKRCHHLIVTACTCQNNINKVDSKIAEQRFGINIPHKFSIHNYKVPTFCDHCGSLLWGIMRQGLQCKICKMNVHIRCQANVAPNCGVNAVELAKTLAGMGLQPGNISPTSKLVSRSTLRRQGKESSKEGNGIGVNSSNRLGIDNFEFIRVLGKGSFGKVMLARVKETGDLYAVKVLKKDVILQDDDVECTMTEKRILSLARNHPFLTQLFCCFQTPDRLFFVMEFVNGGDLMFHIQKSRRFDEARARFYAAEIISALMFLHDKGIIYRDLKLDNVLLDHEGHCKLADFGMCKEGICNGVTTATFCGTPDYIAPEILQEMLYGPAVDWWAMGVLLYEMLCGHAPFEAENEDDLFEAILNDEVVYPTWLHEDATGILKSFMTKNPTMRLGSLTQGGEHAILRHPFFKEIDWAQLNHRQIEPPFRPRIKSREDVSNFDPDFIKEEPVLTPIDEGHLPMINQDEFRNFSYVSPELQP
ABL2, sequence (P42684 whole entry): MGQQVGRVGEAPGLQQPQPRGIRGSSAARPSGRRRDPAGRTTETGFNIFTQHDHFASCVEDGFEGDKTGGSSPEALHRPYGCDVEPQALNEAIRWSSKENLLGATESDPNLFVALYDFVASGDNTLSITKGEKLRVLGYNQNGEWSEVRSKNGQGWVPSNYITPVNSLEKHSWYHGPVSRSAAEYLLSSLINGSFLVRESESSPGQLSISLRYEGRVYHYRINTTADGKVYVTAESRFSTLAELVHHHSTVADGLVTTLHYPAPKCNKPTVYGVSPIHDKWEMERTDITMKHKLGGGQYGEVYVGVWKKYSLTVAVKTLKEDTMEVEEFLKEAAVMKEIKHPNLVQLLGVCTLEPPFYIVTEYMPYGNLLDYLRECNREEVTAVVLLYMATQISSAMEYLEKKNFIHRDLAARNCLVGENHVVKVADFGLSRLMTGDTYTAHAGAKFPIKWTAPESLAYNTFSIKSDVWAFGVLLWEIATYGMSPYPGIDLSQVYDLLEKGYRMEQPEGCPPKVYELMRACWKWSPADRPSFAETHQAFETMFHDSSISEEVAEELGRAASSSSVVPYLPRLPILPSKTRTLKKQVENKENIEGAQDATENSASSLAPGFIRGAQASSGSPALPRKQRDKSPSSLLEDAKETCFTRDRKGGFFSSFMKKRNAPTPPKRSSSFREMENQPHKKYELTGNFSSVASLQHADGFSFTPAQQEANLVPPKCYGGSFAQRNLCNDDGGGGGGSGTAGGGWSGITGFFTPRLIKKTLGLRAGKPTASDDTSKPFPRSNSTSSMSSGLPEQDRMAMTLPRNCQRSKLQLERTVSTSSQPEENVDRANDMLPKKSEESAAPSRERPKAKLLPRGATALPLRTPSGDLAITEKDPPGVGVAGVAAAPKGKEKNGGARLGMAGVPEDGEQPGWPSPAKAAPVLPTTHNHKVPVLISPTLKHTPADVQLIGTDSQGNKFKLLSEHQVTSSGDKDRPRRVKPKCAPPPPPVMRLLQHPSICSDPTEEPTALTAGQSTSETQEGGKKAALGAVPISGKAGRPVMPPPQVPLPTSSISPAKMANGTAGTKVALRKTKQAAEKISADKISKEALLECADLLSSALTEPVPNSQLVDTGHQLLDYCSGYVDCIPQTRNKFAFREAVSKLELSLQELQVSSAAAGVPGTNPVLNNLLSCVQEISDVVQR
BRAF, sequence (P15056 whole entry): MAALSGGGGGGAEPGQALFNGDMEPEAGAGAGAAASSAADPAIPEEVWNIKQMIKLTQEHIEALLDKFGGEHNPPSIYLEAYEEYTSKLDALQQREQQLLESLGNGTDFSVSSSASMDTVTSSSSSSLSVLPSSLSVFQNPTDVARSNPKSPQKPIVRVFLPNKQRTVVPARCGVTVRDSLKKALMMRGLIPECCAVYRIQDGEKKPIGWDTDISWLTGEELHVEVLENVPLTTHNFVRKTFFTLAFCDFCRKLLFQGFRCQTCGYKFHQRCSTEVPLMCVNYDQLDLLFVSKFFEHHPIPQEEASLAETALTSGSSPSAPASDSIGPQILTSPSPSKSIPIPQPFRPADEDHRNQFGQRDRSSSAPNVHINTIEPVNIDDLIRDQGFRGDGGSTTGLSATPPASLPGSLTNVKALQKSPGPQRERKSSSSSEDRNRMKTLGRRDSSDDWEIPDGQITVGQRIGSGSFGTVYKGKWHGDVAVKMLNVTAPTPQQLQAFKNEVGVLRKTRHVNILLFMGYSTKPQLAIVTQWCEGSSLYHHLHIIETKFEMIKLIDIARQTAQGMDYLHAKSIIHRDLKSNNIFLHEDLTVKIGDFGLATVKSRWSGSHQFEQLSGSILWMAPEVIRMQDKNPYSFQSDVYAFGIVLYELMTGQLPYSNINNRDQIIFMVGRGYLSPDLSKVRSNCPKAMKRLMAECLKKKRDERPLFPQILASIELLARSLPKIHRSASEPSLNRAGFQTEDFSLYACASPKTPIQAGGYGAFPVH
T3 sequence (Q9P286 whole entry): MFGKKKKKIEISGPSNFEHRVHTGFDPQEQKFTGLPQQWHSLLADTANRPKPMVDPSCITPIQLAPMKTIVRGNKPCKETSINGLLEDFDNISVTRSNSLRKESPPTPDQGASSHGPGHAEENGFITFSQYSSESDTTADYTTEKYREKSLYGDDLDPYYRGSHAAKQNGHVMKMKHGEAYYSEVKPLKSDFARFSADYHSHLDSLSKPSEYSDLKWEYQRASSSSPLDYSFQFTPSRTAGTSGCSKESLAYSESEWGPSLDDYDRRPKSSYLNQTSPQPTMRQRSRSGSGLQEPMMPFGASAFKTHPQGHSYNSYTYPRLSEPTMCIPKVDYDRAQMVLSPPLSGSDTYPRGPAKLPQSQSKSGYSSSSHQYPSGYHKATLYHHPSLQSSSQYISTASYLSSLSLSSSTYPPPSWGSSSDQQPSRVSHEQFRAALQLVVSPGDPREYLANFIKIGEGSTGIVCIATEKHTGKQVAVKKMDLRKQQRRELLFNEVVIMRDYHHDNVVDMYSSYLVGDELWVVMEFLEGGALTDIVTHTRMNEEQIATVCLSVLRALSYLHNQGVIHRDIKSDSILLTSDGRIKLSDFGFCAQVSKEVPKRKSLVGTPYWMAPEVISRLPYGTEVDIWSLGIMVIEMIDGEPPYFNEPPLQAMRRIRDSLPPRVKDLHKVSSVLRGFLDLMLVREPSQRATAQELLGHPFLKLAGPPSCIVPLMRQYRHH
ACVR2A, sequence (P27037 whole entry): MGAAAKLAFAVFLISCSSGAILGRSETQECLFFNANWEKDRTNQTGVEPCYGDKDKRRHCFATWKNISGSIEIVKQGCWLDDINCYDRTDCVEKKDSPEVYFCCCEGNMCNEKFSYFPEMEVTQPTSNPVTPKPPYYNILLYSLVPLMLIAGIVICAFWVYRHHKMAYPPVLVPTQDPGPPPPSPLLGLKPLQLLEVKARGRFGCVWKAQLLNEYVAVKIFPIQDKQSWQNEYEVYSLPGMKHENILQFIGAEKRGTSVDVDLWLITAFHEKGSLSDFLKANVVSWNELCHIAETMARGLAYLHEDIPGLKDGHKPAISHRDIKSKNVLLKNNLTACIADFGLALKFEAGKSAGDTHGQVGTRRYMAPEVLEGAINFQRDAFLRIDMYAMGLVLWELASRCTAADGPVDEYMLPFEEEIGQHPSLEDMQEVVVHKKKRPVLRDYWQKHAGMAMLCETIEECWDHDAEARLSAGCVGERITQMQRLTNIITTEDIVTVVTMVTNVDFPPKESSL

With CC#CC(=O)N1CC[C@@H](n2c(=O)n(-c3ccc(Oc4ccccc4)cc3)c3c(N)ncnc32)C1 [Tirabrutinib] the remaining binding at 0.3 µM (ERK3; [2]) was 90%, the remaining binding at 0.3 µM (MELK; [2]) was 82% and the remaining binding at 0.3 µM (PAK6; [2]) was 98%. For the same molecule, the remaining binding at 0.3 µM (PRKCH; [2]) was 91%, the remaining binding at 0.3 µM (PRKCQ; [2]) was 93% and the remaining binding at 0.3 µM (PRKX; [2]) was 87%. The remaining binding at 0.3 µM (SBK1; [2]) was 53% and the remaining binding at 0.3 µM (TNK2; [2]) was 93%.

C=CC(=O)N1CCC[C@@H](n2nc(-c3ccc(Oc4ccccc4)cc3)c3c(N)ncnc32)C1 [Ibrutinib] was tested, and the remaining binding at 0.3 µM (ABL2; [3]) was 82%, the remaining binding at 0.3 µM (ACVR2A; [3]) was 86% and the remaining binding at 0.3 µM (BRAF; [3]) was 97%. For the same molecule, the remaining binding at 0.3 µM (MELK; [3]) was 74%, the remaining binding at 0.3 µM (PAK7; [3]) was 94% and the remaining binding at 0.3 µM (PRKCH; [3]) was 90%. For the same molecule, the remaining binding at 0.3 µM (PRKX; [3]) was 75%, the remaining binding at 0.3 µM [1, 3] was 98% and the remaining binding at 0.3 µM (SBK1; [3]) was 47%. It also gave a remaining binding at 0.3 µM (TNK2; [3]) of 48%, a remaining binding at 0.3 µM (TTK; [3]) of 93% and a remaining binding at 0.3 µM (ZAK; [3]) of 70%.

Work on C=CC(=O)N1CCC([C@@H]2CCNc3c(C(N)=O)c(-c4ccc(Oc5ccccc5)cc4)nn32)CC1 [Zanubrutinib] yielded a remaining binding at 0.3 µM (ABL2; [4]) of 77%, a remaining binding at 0.3 µM (ACVR2A; [4]) of 100% and a remaining binding at 0.3 µM (BRAF; [4]) of 97%. The remaining binding at 0.3 µM (ERK3; [4]) was 98%, the remaining binding at 0.3 µM (MELK; [4]) was 59% and the remaining binding at 0.3 µM (PAK6; [4]) was 91%. For the same molecule, the remaining binding at 0.3 µM (PAK7; [4]) was 87%, the remaining binding at 0.3 µM (PRKCH; [4]) was 97% and the remaining binding at 0.3 µM (PRKCQ; [4]) was 87%. For the same molecule, the remaining binding at 0.3 µM (PRKX; [4]) was 96%, the remaining binding at 0.3 µM [1, 4] was 74% and the remaining binding at 0.3 µM (SBK1; [4]) was 94%. It also gave a remaining binding at 0.3 µM (TNK2; [4]) of 90%, a remaining binding at 0.3 µM (TTK; [4]) of 94% and a remaining binding at 0.3 µM (ZAK; [4]) of 62%.

Molecule CC#CC(=O)N1CCC[C@H]1c1nc(-c2ccc(C(=O)Nc3ccccn3)cc2)c2c(N)nccn12 [Acalabrutinib] has a remaining binding at 0.3 µM (ABL2; [5]) of 97%, a remaining binding at 0.3 µM (ACVR2A; [5]) of 80% and a remaining binding at 0.3 µM (BRAF; [5]) of 85%. For the same molecule, the remaining binding at 0.3 µM (ERK3; [5]) was 91%, the remaining binding at 0.3 µM (MELK; [5]) was 81% and the remaining binding at 0.3 µM (PAK6; [5]) was 88%. The remaining binding at 0.3 µM (PAK7; [5]) was 76%, the remaining binding at 0.3 µM (PRKCH; [5]) was 94% and the remaining binding at 0.3 µM (PRKCQ; [5]) was 84%. For the same molecule, the remaining binding at 0.3 µM (PRKX; [5]) was 81%, the remaining binding at 0.3 µM [1, 5] was 79% and the remaining binding at 0.3 µM (SBK1; [5]) was 91%. It also gave a remaining binding at 0.3 µM (TTK; [5]) of 64% and a remaining binding at 0.3 µM (ZAK; [5]) of 83%.
